The values below come from ChEMBL document CHEMBL3244110, “Synthesis and biological evaluation of some 2-amino-4-aryl-3H-1,5-benzodiazepine analogues of clozapine” (J Med Chem, 1978).

Active and inactive are the calls of the source. The calls are words filed in the database; no cut-off is given here.

The test system of data set [1] is Rattus norvegicus. The experiment in a line: Antipsychotic activity in 0.2 mA footshock-induced conditioned stimulus rat assessed as decrease in avoidance response at 5 mg/kg, ip after 30 mins. Type of data set: functional, organism-based. The arrangement: dose 5 mg/kg.
The subject of data set [2] is Rattus norvegicus. The experiment in a line: Antipsychotic activity in 0.2 mA footshock-induced conditioned stimulus rat assessed as decrease in avoidance response at 20 mg/kg, ip after 30 mins. The data set is classed as functional, organism-based. The arrangement: dose 20 mg/kg.
Data set [3] relates to Mus musculus. The experiment in a line: Antipsychotic activity in mouse assessed as protection against amphetamine-induced lethality at 50 mg/kg, ip treated 30 mins before amphetamine challenge. Type of data set: functional, organism-based. The arrangement: dose 50 mg/kg.
In data set [4] the test system is Mus musculus. The experiment in a line: Antipsychotic activity in mouse assessed as increase in brain dopamine turnover at 25 to 30 mg/kg, ip pretreated with 200 mg/kg, ip alpha-methyl-p-tyrosine tyrosine hydroxylase inhibitor. Type of data set: functional, organism-based.
The target in data set [5] is Adenylate cyclase (Rattus norvegicus) (UniProt D4A3N4+P26770+Q04400+P26769+Q03343+P40146+Q8CFM9+P21932). In words: Inhibition of dopamine-sensitive rat brain adenylyl cyclase activity assessed as cAMP level at 10^-4 M.
The subject of data set [6] is Mus musculus. The experiment in a line: Toxicity in mouse assessed as depression at 5 mg/kg, ip. The data set is classed as organism-based. The arrangement: dose 5 mg/kg, route intraperitoneal. Conditions: in vivo.
Data set [7] concerns Mus musculus. In words: Antipsychotic activity in mouse assessed as protection against amphetamine-induced lethality at 5 mg/kg, ip treated 30 mins before amphetamine challenge. Details: dose 5 mg/kg. Type of data set: functional, organism-based.
The target in the next data set is Adenylate cyclase. The experiment in a line: Inhibition of dopamine-sensitive rat brain adenylyl cyclase activity assessed as cAMP level.
For data set [8], the system named is Mus musculus. The experiment in a line: Toxicity in mouse assessed as ptosis at 50 mg/kg, ip. Type of data set: organism-based. The arrangement: dose 50 mg/kg, route intraperitoneal. To be noted: in vivo.
Data set [9] has as its system Mus musculus. In words: Toxicity in mouse assessed as ptosis at 30 mg/kg, ip. Type of data set: organism-based. The arrangement: dose 30 mg/kg, route intraperitoneal. Conditions: in vivo.
The test system of data set [10] is Mus musculus. In words: Toxicity in mouse assessed as depression at 20 mg/kg, ip. Type of data set: organism-based. Details: dose 20 mg/kg, route intraperitoneal. To be noted: in vivo.
For data set [11], the system named is Mus musculus. In words: Toxicity in mouse assessed as tremors at 50 mg/kg, ip. The data set is classed as organism-based. Details: dose 50 mg/kg, route intraperitoneal. To be noted: in vivo.
Data set [12] relates to Mus musculus. In words: Toxicity in mouse assessed as depression at 50 mg/kg, ip. The data set is classed as organism-based. Details: dose 50 mg/kg, route intraperitoneal. To be noted: in vivo.

In the case of `Fc1ccc(C2=Nc3ccccc3N=C(N3CCC(c4ccccc4)CC3)C2)cc1`, the outcome with Rattus norvegicus [1], in the data set with Mus musculus [3] and in the data set with Mus musculus [7] was Active. Moreover, the result in the data set on Rattus norvegicus [2] and in the data set with Mus musculus [4] was inactive. Further, in data set [5], the inhibition result was “inactive”. Further, in the data set on Mus musculus [6], the Activity result is “Toxic”.
As for `c1ccc(C2=Nc3ccccc3N=C(N3CCC(c4ccccc4)CC3)C2)cc1`, the IC50 on Adenylate cyclase stood at 4.5 ×10⁻⁵ M. Further, the result in the data set on Rattus norvegicus [1] and in the data set on Rattus norvegicus [2] was inactive. In addition, the Activity result with Mus musculus [8] was “Toxic”. The result in the data set on Mus musculus [3], in the data set on Mus musculus [4] and with Mus musculus [7] was Active.
For `CN1CCN(C2=Nc3cc(Cl)ccc3Nc3ccccc32)CC1` [CLOZAPINE], on Adenylate cyclase, the IC50 was determined as 1.4 ×10⁻⁷ M. The outcome with Rattus norvegicus [1], in the data set on Rattus norvegicus [2], in the data set with Mus musculus [3], with Mus musculus [4] and in the data set with Mus musculus [7] was Active.
In the case of `Clc1ccc(C2CCN(C3=Nc4ccccc4N=C(c4ccccc4)C3)CC2)cc1`, the outcome with Rattus norvegicus [1], in the data set on Rattus norvegicus [2], in the data set with Mus musculus [3] and in the data set on Mus musculus [4] was inactive. Moreover, the Activity entry in the data set on Mus musculus [9] is “Toxic”. The outcome in the data set with Mus musculus [7] was Active.
Turning to `Cc1cc2c(cc1C)N=C(N1CCN(C)CC1)CC(c1ccccc1)=N2`, the Activity entry with Mus musculus [10] and in the data set on Mus musculus [11] was “Toxic” throughout. For the same compound, the result in the data set on Rattus norvegicus [1], with Mus musculus [3] and in the data set with Mus musculus [7] was inactive. The result in the data set on Rattus norvegicus [2] and in the data set on Mus musculus [4] was Active. In data set [5], the inhibition entry is “inactive”.
`Cc1ccc(C2=CCN(C3=Nc4ccccc4N=C(c4ccccc4)C3)CC2)cc1`: the Activity result with Mus musculus [10] and with Mus musculus [6] was “Toxic” each time. The outcome in the data set on Rattus norvegicus [1], in the data set with Rattus norvegicus [2], in the data set with Mus musculus [3] and with Mus musculus [4] was Active. Moreover, the inhibition in data set [5] is 27%. Further, the result with Mus musculus [7] was inactive.
Turning to `CN1CCN(C2=Nc3ccccc3N=C(c3ccc(F)cc3)C2)CC1`, the Activity result with Mus musculus [10], with Mus musculus [8] and in the data set with Mus musculus [12] was “Toxic” in each case. For the same compound, the result in the data set on Rattus norvegicus [1], with Mus musculus [3] and in the data set with Mus musculus [7] was inactive. For the same compound, the result with Rattus norvegicus [2] and with Mus musculus [4] was Active. Besides, the inhibition in data set [5] stood at 46%.
